Holding throughout (format): biochemical
Assay [1] concerns the target T1, Bst DNA polymerase (Geobacillus stearothermophilus, UniProt P52026).
T1 sequence (P52026 1-876): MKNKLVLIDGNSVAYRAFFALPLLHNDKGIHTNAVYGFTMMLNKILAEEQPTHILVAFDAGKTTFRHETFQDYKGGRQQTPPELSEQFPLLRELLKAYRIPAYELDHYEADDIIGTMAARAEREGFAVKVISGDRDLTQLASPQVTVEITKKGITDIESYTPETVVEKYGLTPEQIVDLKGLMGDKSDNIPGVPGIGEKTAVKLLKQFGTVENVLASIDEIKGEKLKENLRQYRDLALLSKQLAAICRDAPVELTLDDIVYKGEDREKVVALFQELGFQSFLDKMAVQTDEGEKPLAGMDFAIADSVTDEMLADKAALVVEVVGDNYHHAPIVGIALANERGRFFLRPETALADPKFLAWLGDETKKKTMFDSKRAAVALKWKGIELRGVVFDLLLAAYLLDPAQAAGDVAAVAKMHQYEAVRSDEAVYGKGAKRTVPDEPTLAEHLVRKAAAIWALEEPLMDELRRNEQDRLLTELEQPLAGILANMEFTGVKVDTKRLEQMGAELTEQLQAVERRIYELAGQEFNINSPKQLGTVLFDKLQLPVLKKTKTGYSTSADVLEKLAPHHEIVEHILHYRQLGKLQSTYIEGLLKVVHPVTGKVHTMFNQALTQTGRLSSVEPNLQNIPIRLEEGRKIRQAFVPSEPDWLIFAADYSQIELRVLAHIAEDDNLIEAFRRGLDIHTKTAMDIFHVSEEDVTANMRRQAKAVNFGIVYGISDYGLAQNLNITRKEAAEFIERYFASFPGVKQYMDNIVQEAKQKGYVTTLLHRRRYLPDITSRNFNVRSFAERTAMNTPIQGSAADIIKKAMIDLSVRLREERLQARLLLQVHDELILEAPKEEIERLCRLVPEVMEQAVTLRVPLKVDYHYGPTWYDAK
Nature of the assay: Synthesis of single-stranded 56-mer by primer extension and lambda exonuclease digestion. Conditions: substituted for dATP and dTTP; for full-length 56-mer product: 65° C., 30 minutes. The protocol:
Unstructured single-stranded UNA was generated by incorporating 2-aminoadenosine and 2-thiothymidine nucleotides using a 14-mer primer and 56-mer template (5′-phosphorylated) and Bst DNA polymerase followed by digestion of the DNA template with lambda exonuclease (FIG. 6). Ten microliter extension reactions were performed in 0.65 ml pre-siliconized microfuge tubes containing the following components: 20 mM Tris-Cl (pH 8.8 @ 25° C.), 10 mM KCl, 10 mM (NH4)2SO4, 2 mM MgSO4, 0.1% Triton-X100, 1.0 microM primer/template, 500 microM dGTP, 500 microM dATP (or 2-amino-2′-deoxyadenosine-5′-triphosphate), 500 microM dTTP (or 2-thiothymidine-5′-triphosphate), 200 microM ^32P--CTP and 0.8 units/microL Bst DNA polymerase. The reactions were incubated at 65° C. for 30 minutes, quenched with 5 mM EDTA, ethanol precipitated, dried and resuspended in 10 microL of 10 mM Tris-Cl pH 8.0. The 56-mer template was digested by incubating the resuspended samples with 10 units of lambda exonuclease (Strandase Kit™, (Novagen; Madison, Wis.)) for 30 minutes at 37° C. The reactions were quenched with 5 mM EDTA, ethanol precipitated, dried and resuspended in 10 microL of 10 mM Tris-Cl pH 8.0. The samples were then electrophoresed on 10% denaturing (7M urea) polyacrylamide gels and visualized using phosphorimaging methods.

In assay [2] the test system is Bst DNA polymerase, Taq DNA polymerase, MMLV-RT. Briefly: Polymerase extension of 32P-labeled 12-mer primer on synthetic 30-mer template to full-length product. The following applies: all three polymerases. The protocol:
The ability of the Bacillus sterothermophilus (Bst) DNA polymerase (New England Biolabs), the Thermus aquaticus (Taq) DNA polymerase (Amersham) and the Moloney Murine Leukemia Virus reverse transcriptase (MMLV-RT) (Amersham) to incorporate the 2-amino-2′-deoxyadenosine-5′-triphosphate and 2-thiothymidine-5′-triphosphate into polynucleotides was tested using a synthetic 30-mer template and ^32P-labeled 12-mer primer (S.A. 130 Ci/mmol). (FIG. 2A). Extension reactions for each polymerase were performed in 0.65 ml pre-siliconized microfuge tubes containing the following components: (Bst) 20 mM Tris-Cl (pH 8.8 @ 25° C.), 10 mM KCl, 10 mM (NH4)2SO4, 2 mM MgSO4, 0.1% Triton-X100, 0.5 microM primer/template, 250 microM each dNTP and 0.15 units/microL Bst DNA polymerase; (Taq) 26 mM Tris-Cl (pH 9.5 @25° C.), 6.5 mM MgCl2, 0.5 microM primer/template, 250 microM each dNTP and 0.15 units/microL Taq DNA polymerase; (MMLV-RT) 50 mM Tris-Cl (pH 8.3 @ 25° C.) 75 mM KCl, 3 mM MgCl2, […], 0.5 microM primer/template, 250 microM each dNTP and 0.5 units/microL MMLV-RT. The reactions were incubated for 15 minutes at 65° C. for the Bst and Taq reactions and 42° C. for the MMLV-RT reaction. The reaction mixtures were separated by electrophoresis on 10% denaturing (7M urea) polyacrylamide gels and visualized by phosphorimaging methods.

In assay [3] the target is T2, SuperScript II MMLV reverse transcriptase (Moloney murine leukemia virus, UniProt P03355, D1183G/D1242N/E1221Q).
T2 construct: 200 units of SuperScript II MMLV reverse transcriptase (InVitrogen); purchased InVitrogen
Nature of the assay: Synthesis of fluorescently labeled cUNA from pBp-1 T7-RNA template with dCTP-Cy5. Conditions: substituted for dATP and TTP; one hour. The protocol:
The ability to generate fluorescently labeled cUNAs was tested using the pBp-1 T7-RNA template and dCTP-Cy5 fluorescently labeled nucleotide analogue (Perkin-Elmer/NEN). The reverse transcriptase reactions (10.0 uL) were performed in 0.65 mL pre-siliconized microfuge tubes containing the following components: 50 mM Tris-Cl (pH 8.3), 75 mM KCl, 3.0 mM MgCl2, 4.5 mM DTT, 500 uM dGTP (or dITP), 500 uM dATP (or 2-amino-2′-deoxyadenosine-5′-triphosphate), 500 uM TTP (or 2-thiothymidine-5′-triphosphate), the indicated amounts of dCTP and dCTP-Cy5, 40 nM pBp-1 RNA template, 1.0 uM T16N2 primer, 1.0 unit of RNase Out (In Vitrogen), and 100 units of SuperScript II MMLV reverse transcriptase (In Vitrogen). The buffer components, RNA template, and primer were annealed by heating to 75° C. for 4 minutes and quickly cooled to room temperature. The dNTPs and RNase inhibitor were then added and the reactions were initiated by the addition of the reverse transcriptase and incubated at 42° C. At one and three hours, 5.0 uL aliquots were removed, mixed with 0.07 ug of RNase A, and incubated at room temperature for 30 minutes. The ribonucleased reaction mixtures were quenched with EDTA and 8 M urea and separated by electrophoresis on 5% polyacrylamide gels (19:1) containing 1×TBE and 9M urea. The fluorescently-labeled products were visualized using a phosphorimager.

Turning to `Cc1cn([C@H]2C[C@H](O)[C@@H](COP(=O)(O)OP(=O)(O)OP(=O)(O)O)O2)c(=S)[nH]c1=O` [2-thiothymidine-5′-triphosphate], in assay [1], the premature termination products result was “little if any” and the “full-length 56-mer product” value was “full-length 56-mer product is generated”. Besides, in assay [2], the “full-length product when both analogues are substituted for A and T in a single reaction mixture” value is on record as “full-length product was generated”. The full-length fluorescently-labeled product result in assay [3] is listed as “full-length fluorescently-labeled product is generated”.

For the molecule `Nc1nc(N)c2ncn([C@H]3C[C@H](O)[C@@H](COP(=O)(O)OP(=O)(O)OP(=O)(O)O)O3)c2n1` [2-amino-2′-deoxyadenosine-5′-triphosphate], in assay [1], the premature termination products result is reported as “little if any” and the “full-length 56-mer product” value is reported as “full-length 56-mer product is generated”. For the same molecule, in assay [2], the “full-length product when both analogues are substituted for A and T in a single reaction mixture” value was “full-length product was generated”. For the same molecule, in assay [3], the full-length fluorescently-labeled product entry is “full-length fluorescently-labeled product is generated”.
